Converted amounts (≈) assume the structure as drawn.
Key:
[1] = Solubility in PBS; format: physicochemical
In short: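 HPLC quantitation of peptide remaining in the PBS supernatant after ultracentrifugation, referenced to a 50 μM solution in DMSO.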

[2] = CHI Log D procedure; format: physicochemical; conditions: pH 7.4

Solubility [1] | CHI Log D [2] | Structure (SMILES)
10 µM (≈ 18.5 µg/mL) | 2.863 | CC(=O)N1CCC[C@]12CC=CCCCC1(CCCC=CCCCCCC[C@@](C)(C(=O)N[C@@H](Cc3cccc(F)c3F)C(=O)N[C@@H](Cc3csc4ccccc34)C(=O)N[C@@H](CCC(N)=O)C(N)=O)NC(=O)[C@H](C(C)C)NC(=O)[C@H](Cc3ccccc3)NC(=O)[C@H](C)NC(=O)[C@H](C)NC(=O)[C@H](CCC(=O)O)NC(=O)[C@H](CC(=O)O)NC1=O)NC(=O)[C@H](C)NC(=O)[C@H](CC(=O)O)NC2=O (stereo partly drawn) [I-388, Ac-PL3-Asp-Ala-B5-Asp-Glu-Ala-Ala-Phe-Val-S8-23FF-BztA-Gln-NH2]
17 µM (≈ 31.4 µg/mL) | 2.868 | CC(=O)N1CCC[C@]12CC=CCCCC1(CCCC=CCCCCCC[C@@](C)(C(=O)N[C@@H](Cc3cccc(F)c3F)C(=O)N[C@@H](Cc3csc4ccccc34)C(=O)N[C@@H](CCC(N)=O)C(N)=O)NC(=O)[C@H](C(C)C)NC(=O)[C@H](Cc3ccccc3)NC(=O)[C@H](C)NC(=O)[C@H](C)NC(=O)[C@H](CCC(=O)O)NC(=O)[C@H](CC(=O)O)NC1=O)NC(=O)[C@H](C)NC(=O)[C@H](CC(=O)O)NC2=O (stereo partly drawn) [I-389, Ac-PL3-Asp-Ala-B5-Asp-Glu-Ala-Ala-Phe-Val-S8-23FF-BztA-Gln-NH2]
50 µM (≈ 91.6 µg/mL) | 1.408 | CC(=O)N1CCC[C@]12CC=CCCCC1(CCCC=CCCCCCC[C@@](C)(C(=O)N[C@@H](Cc3cn(C)cn3)C(=O)N[C@@H](Cc3csc4ccccc34)C(=O)N[C@@H](CCC(N)=O)C(N)=O)NC(=O)[C@H](CC(N)=O)NC(=O)[C@H](Cc3ccccc3)NC(=O)[C@H](C)NC(=O)[C@H](C)NC(=O)[C@H](CCC(=O)O)NC(=O)[C@H](CC(=O)O)NC1=O)NC(=O)[C@H](C)NC(=O)[C@H](CC(=O)O)NC2=O (stereo partly drawn) [I-439, Ac-PL3-Asp-Ala-B5-Asp-Glu-Ala-Ala-Phe-Asn-S8-1meH-BztA-Gln-NH2]
50 µM (≈ 91.6 µg/mL) | 1.613 | CC(=O)N1CCC[C@]12CC=CCCCC1(CCCC=CCCCCCC[C@@](C)(C(=O)N[C@@H](Cc3cn(C)cn3)C(=O)N[C@@H](Cc3csc4ccccc34)C(=O)N[C@@H](CCC(N)=O)C(N)=O)NC(=O)[C@H](CC(N)=O)NC(=O)[C@H](Cc3ccccc3)NC(=O)[C@H](C)NC(=O)[C@H](C)NC(=O)[C@H](CCC(=O)O)NC(=O)[C@H](CC(=O)O)NC1=O)NC(=O)[C@H](C)NC(=O)[C@H](CC(=O)O)NC2=O (stereo partly drawn) [I-440, Ac-PL3-Asp-Ala-B5-Asp-Glu-Ala-Ala-Phe-Asn-S8-1meH-BztA-Gln-NH2]
42 µM (≈ 76.7 µg/mL) | 2.637 | CC(=O)N1CCC[C@]12CC=CCCCC1(CCCC=CCCCCCC[C@@](C)(C(=O)N[C@@H](Cc3ccccc3)C(=O)N[C@@H](Cc3csc4ccccc34)C(=O)N[C@@H](CCC(N)=O)C(N)=O)NC(=O)[C@H](CCC(N)=O)NC(=O)[C@H](Cc3ccccc3)NC(=O)[C@H](C)NC(=O)[C@H](C)NC(=O)[C@H](CCC(=O)O)NC(=O)[C@H](CCO)NC1=O)NC(=O)[C@H](C)NC(=O)[C@H](CC(=O)O)NC2=O (stereo partly drawn) [I-498, Ac-PL3-Asp-Ala-B5-Hse-Glu-Ala-Ala-Phe-Gln-S8-Phe-BztA-Gln-NH2]

More lines, now with the values behind:

Structure (SMILES) | Solubility [1] | CHI Log D [2]
CC(=O)N1CCC[C@]12CC=CCCCC1(CCCC=CCCCCCC[C@@](C)(C(=O)N[C@@H](Cc3ccccc3)C(=O)N[C@@H](Cc3csc4ccccc34)C(=O)N[C@@H](CCC(N)=O)C(N)=O)NC(=O)[C@H](CCC(N)=O)NC(=O)[C@H](Cc3ccccc3)NC(=O)[C@H](C)NC(=O)[C@H](C)NC(=O)[C@H](CCC(=O)O)NC(=O)[C@H](CC(=O)O)NC1=O)NC(=O)[C@H](C)NC(=O)[C@H](Cc1nn[nH]n1)NC2=O (stereo partly drawn) [I-416, Ac-PL3-tetz-Ala-B5-Asp-Glu-Ala-Ala-Phe-Gln-S8-Phe-BztA-Gln-NH2] | 44 µM (≈ 82.1 µg/mL) | 2.058
CC(=O)N1CCC[C@]12CC=CCCCC1(CCCC=CCCCCCC[C@@](C)(C(=O)N[C@@H](Cc3ccccc3)C(=O)N[C@@H](Cc3csc4ccccc34)C(=O)N[C@@H](CCC(N)=O)C(N)=O)NC(=O)[C@H](CCC(N)=O)NC(=O)[C@H](Cc3ccccc3)NC(=O)[C@H](C)NC(=O)[C@H](C)NC(=O)[C@H](CCC(=O)O)NC(=O)[C@H](CC(=O)O)NC1=O)NC(=O)[C@H](C)NC(=O)[C@H](Cc1nn[nH]n1)NC2=O (stereo partly drawn) [I-417, Ac-PL3-tetz-Ala-B5-Asp-Glu-Ala-Ala-Phe-Gln-S8-Phe-BztA-Gln-NH2] | 30 µM (≈ 56 µg/mL) | 2.085
CC(=O)N1CCC[C@]12CC=CCCCC1(CCCC=CCCCCCC[C@@](C)(C(=O)N[C@@H](Cc3cccc(F)c3)C(=O)N[C@@H](Cc3c[nH]c4ccccc34)C(=O)N[C@@H](CCC(N)=O)C(N)=O)NC(=O)[C@H](CCC(N)=O)NC(=O)[C@H](Cc3ccsc3)NC(=O)[C@H](C)NC(=O)[C@H](C)NC(=O)[C@H](CCC(=O)O)NC(=O)[C@H](CC(=O)O)NC1=O)NC(=O)[C@H](C)NC(=O)[C@H](CC(=O)O)NC2=O (stereo partly drawn) [I-451, Ac-PL3-Asp-Ala-B5-Asp-Glu-Ala-Ala-3Thi-Gln-S8-3FF-Trp-Gln-NH2] | 50 µM (≈ 92.4 µg/mL) | 1.88
C=CC(=O)NC[C@H](NC(=O)[C@]1(C)CCCCCCC=CCCCC2(CCCC=CC[C@]3(CCCN3C(C)=O)C(=O)N[C@@H](CC(=O)O)C(=O)N[C@@H]([C@@H](C)CC)C(=O)N2)C(=O)N[C@@H](CC(=O)O)C(=O)N[C@@H](CC(=O)O)C(=O)N[C@@H](C)C(=O)N[C@@H](C)C(=O)N[C@@H](Cc2ccccc2)C(=O)N[C@@H](CCC(N)=O)C(=O)N1)C(=O)N[C@@H](Cc1csc2ccccc12)C(=O)N[C@@H](CCC(N)=O)C(N)=O (stereo partly drawn) [I-483, Ac-PL3-Asp-Ile-B5-Asp-Asp-Ala-Ala-Phe-Gln-S8-[Acryl]Dap-BztA-Gln-NH2] | 43 µM (≈ 80.1 µg/mL) | 1.845
C=CC(=O)NC[C@H](NC(=O)[C@]1(C)CCCCCCC=CCCCC2(CCCC=CC[C@]3(CCCN3C(C)=O)C(=O)N[C@@H](CC(=O)O)C(=O)N[C@@H]([C@@H](C)CC)C(=O)N2)C(=O)N[C@@H](CC(=O)O)C(=O)N[C@@H](CC(=O)O)C(=O)N[C@@H](C)C(=O)N[C@@H](C)C(=O)N[C@@H](Cc2ccccc2)C(=O)N[C@@H](CCC(N)=O)C(=O)N1)C(=O)N[C@@H](Cc1csc2ccccc12)C(=O)N[C@@H](CCC(N)=O)C(N)=O (stereo partly drawn) [I-484, Ac-PL3-Asp-Ile-B5-Asp-Asp-Ala-Ala-Phe-Gln-S8-[Acryl]Dap-BztA-Gln-NH2] | 45 µM (≈ 83.8 µg/mL) | 1.863
CC(=O)N1CCC[C@]12CC=CCCCC1(CCCC=CCCCCCC[C@@](C)(C(=O)N[C@@H](Cc3ccccc3)C(=O)N[C@@H](Cc3csc4ccccc34)C(=O)N[C@@H](CCC(N)=O)C(N)=O)NC(=O)[C@H](CCC(N)=O)NC(=O)[C@H](Cc3ccccc3)NC(=O)[C@H](C)NC(=O)[C@H](C)NC(=O)[C@H](CCC(=O)O)NC(=O)[C@H](CCO)NC1=O)NC(=O)[C@H](C)NC(=O)[C@H](CC(=O)O)NC2=O (stereo partly drawn) [I-496, Ac-PL3-Asp-Ala-B5-Hse-Glu-Ala-Ala-Phe-Gln-S8-Phe-BztA-Gln-NH2] | 41 µM (≈ 74.9 µg/mL) | 2.456
CC(=O)N1CCC[C@]12CC=CCCCC1(CCCC=CCCCCCC[C@@](C)(C(=O)N[C@@H](Cc3ccccc3)C(=O)N[C@@H](Cc3csc4ccccc34)C(=O)N[C@@H](CCC(N)=O)C(N)=O)NC(=O)[C@H](CCC(N)=O)NC(=O)[C@H](Cc3ccccc3)NC(=O)[C@H](C)NC(=O)[C@H](C)NC(=O)[C@H](CCC(=O)O)NC(=O)[C@H](CCO)NC1=O)NC(=O)[C@H](C)NC(=O)[C@H](CC(=O)O)NC2=O (stereo partly drawn) [I-497, Ac-PL3-Asp-Ala-B5-Hse-Glu-Ala-Ala-Phe-Gln-S8-Phe-BztA-Gln-NH2] | 29 µM (≈ 53 µg/mL) | 2.6

— US20240116985A1, “STAPLED PEPTIDES AND METHODS THEREOF” (priority 2020, published 2024)
